Test results as given in patent publication US11261190B2, “Dihydropyrimidine compounds and uses thereof in medicine” (SUNSHINE LAKE PHARMA CO., LTD., priority 2017, dated 2022).
Where two headings read alike, the source gives them in different places.

Key:
[1] = tested on: HBV; experiment: Anti HBV activity in vitro, viral DNA from HepG2.2.15 cells quantified by qPCR; assay type: cell-based; conditions: qPCR of viral DNA in supernatant, read-out: EC50 against HBV replication
Method: Test 1: Test Method of EC50 of Anti HBV
HBV Cell Line and Culture Conditions
HepG2.2.15 (SELLS, PNAS, 1987 and SELLS, JV, 1988) chromosomes have an integrated complete HBV genome, and stably express viral RNA and viral protein. HepG2.2.15 cells can secrete mature HBV particles, HBsAg and HBeAg to medium. HepG2.2.15 cells were cultured in DMEM containing 10% fetal bovine serum, 100 U/mL penicillin, 100 U/mL streptomycin, 1% non essential amino acid, 1 mM sodium pyruvate and 300 µg/mL G418.
Viral particles DNA secreted from HepG2.2.15 cells can be quantified by qPCR, and the effect of the compound on viral replication can be detected.
Test of Anti HBV Activity In Vitro
8000 HepG 2.2.15 cells per well were seeded into a 96-well plate, the plate was cultured at 37° C. and 5% CO2 for 3 days till the cells grew to full wells. Old liquid medium can be removed and replaced with new medium (200 μL) on day 0.
Formulating the compound and treating the cells in the experiment of anti virus: the compound was dissolved in DMSO to a concentration of 30 mM, and then the compound solution was diluted with DMSO to a concentration of […], and then eight dilutions at 4 fold were performed, the highest concentration is 800 μM. The serial diluted compound was added to the above plate at 1 μL per well, the highest final concentration in the experiment is 4 μM (200 fold dilution). TDF (tenofovir dipiroxil fumarate, Selleck, Cat S1400) has a highest concentration of 4 μM as a positive control. 1 μL of DMSO was added in to the positive control well at a final concentration of 0.5%, TDF was added in to the positive control well at a final concentration of 1 μM.
Detection of Viral Genomic DNA by qPCR
Primer: HBV-For-202, […]; HBV-Rev-315, […]. Copies of virus can be calculated using a standard curve plotted by using plasmid containing HBV genome and using SYBR Premix Ex Taq II Takara DRR081S kit and 1 μL cell culture supernatant as a template. EC50 values of the compound on viral replication were calculated by a four parametric nonlinear regression model using Graphpad Prism 5 software to manage concentration—viral copy number.

[2] = tested on: HepG2.2.15 cells; experiment: Cytotoxicity in HepG2.2.15 cells (CellTiter Glo); assay type: cell-based; conditions: 4 days, highest concentration 150 μM
Method: (§1) Test 2: Cytotoxicity and Selectivity Index
(§2) Methods of Testing Cytotoxicity and Selectivity Index
(§3) The serial diluted compound was added to a 384 wells plate at 50 μL HepG2.2.15 cell per well (3000 cells per well), the highest final concentration in the experiment is 150 μM (200 fold dilution). The plate was cultured at 37° C. in an incubator with C02 for 4 days, and cytotoxicity of the compound was detected using CellTiter Glo agent.
(§4) The cytotoxicity of the compound was calculated using the following formulate, cytotoxicity (%)=100−(detection value/mean of DMSO control wells values×100). CC50 values were calculated by a four parametric nonlinear regression model using Graphpad Prism 5 software to manage concentration−cytotoxicity (%). […]

[3] = PK test on SD rats; assay type: in vivo; conditions: for AUC(0-inf) / AUC(0-t) / Tmax: male, rat, plasma
Method: The PK test method of the compound in vivo of SD rats (purchased from Hunan slack Jing Da laboratory animal Co., Ltd, weight: […] male, ages of 2-3 months, 3 per oral group, 3 per intravenous injection group):
The Rats were administered intragastrically with the test compound at doses of 2.5 mg/kg or 5 mg/kg or administered intravenously with the test compound at doses of 1 mg/kg.
Blood samples were taken at 0.083, 0.25, 0.5, 1, 2, 5, 7 and 24 hours from vein after the administration, and collected in anticoagulation tube with EDTA-K2. The test compounds were extracted from plasma samples by liquid-liquid extraction. Then quantitative analysis was performed on a triple-quadrupole tandem mass spectrometer using multiple reaction monitoring (MRM). Pharmacokinetic parameters were calculated using a noncompartmental method by WinNonLin 6.3 software.

[4] = Cytotoxicity in HepG2.2.15 cells (CellTiter Glo); assay type: cell-based; conditions: human, highest concentration 150 μM
Method: as §1, §2, §3, §4

[5] = tested on: HBV; conditions: Science, 2003, 299, 893-896; cited from earlier work

Q: What does the source list for `CCOC(=O)C1=C(CN2CCN3C(=O)N(c4nc(CCC(=O)O)cs4)C[C@@H]3C2)NC(c2nccs2)=N[C@H]1c1ccc(F)cc1Br` [Example 30]?
A: EC50 [1]: 12 nM; CC50 [2]: 133000 nM

Q: With `COC(=O)C1=C(CN2CCN3C(=O)N(c4ccc(CCC(=O)O)cc4)C[C@@H]3C2)NC(c2nccs2)=N[C@H]1c1ccc(F)cc1Cl` [Example 13, 3-(4-((S)-7-(((R)-6-(2-chloro-4-fluorophenyl)-5-(methoxycarbonyl)-2-(thiazol-2-yl)-3,6-dihydropyrimidin-4-yl)methyl)-3-oxohexahydroimidazo[1,5-a]pyrazin-2(3H)-yl)phenyl)propionic Acid] as the molecule, how does the AUC(0-inf) ([3]; iv, 1 mg/kg) read?
A: 1320 ng·h/mL

Q: And the AUC(0-t) ([3]; iv, 1 mg/kg)?
A: 1320 ng·h/mL

Q: What about the Tmax ([3]; iv, 1 mg/kg) of the same molecule?
A: 4.98 min

Q: And the AUC(0-inf) ([3]; po, 5 mg/kg)?
A: 3080 ng·h/mL

Q: And the AUC(0-t) ([3]; po, 5 mg/kg)?
A: 3050 ng·h/mL

Q: And the Tmax ([3]; po, 5 mg/kg)?
A: 30 min

Q: What about the F ([3]; po, 5 mg/kg) of the same molecule?
A: 31.2%

Q: What about the EC50 ([1]; Hepatitis B virus) of the same molecule?
A: 4 nM

Q: And the CC50 at 4 days [4]?
A: > 150000 nM

Q: What does the source list for `COC(=O)C1=C(CN2CCN3C(=O)N(c4ccc(CC(C)(C)C(=O)O)cc4)C[C@@H]3C2)NC(c2nccs2)=N[C@H]1c1ccc(F)cc1Cl` [Example 17, 3-(4-((S)-7-(((R)-6-(2-chloro-4-fluorophenyl)-5-(methoxycarbonyl)-2-(thiazol-2-yl)-3,6-dihydropyrimidin-4-yl)methyl)-3-oxohexahydroimidazo[1,5-a]pyrazin-2(3H)-yl)phenyl)-2,2-dimethylpropionic Acid]?
A: AUC(0-inf) ([3]; iv, 1 mg/kg): 979 ng·h/mL; AUC(0-t) ([3]; iv, 1 mg/kg): 977 ng·h/mL; Tmax ([3]; iv, 1 mg/kg): 4.98 min; AUC(0-inf) ([3]; po, 5 mg/kg): 5580 ng·h/mL; AUC(0-t) ([3]; po, 5 mg/kg): 4710 ng·h/mL; Tmax ([3]; po, 5 mg/kg): 60 min; F ([3]; po, 5 mg/kg): 114.1%; EC50 ([1]; Hepatitis B virus): 4 nM; CC50 at 4 days [4]: > 150000 nM

Q: What does the source list for `COC(=O)C1=C(CN2CCN3C(=O)N(c4ccc(C(C)CC(=O)O)cc4)C[C@@H]3C2)NC(c2nccs2)=N[C@H]1c1ccc(F)cc1Cl` (stereo partly drawn) [Example 19, 3-(4-((S)-7-(((R)-6-(2-chloro-4-fluorophenyl)-5-(methoxycarbonyl)-2-(thiazol-2-yl)-3,6-dihydropyrimidin-4-yl)methyl)-3-oxohexahydroimidazo[1,5-a]pyrazin-2(3H)-yl)phenyl) butanoic Acid]?
A: AUC(0-inf) ([3]; iv, 1 mg/kg): 5520 ng·h/mL; AUC(0-t) ([3]; iv, 1 mg/kg): 5520 ng·h/mL; Tmax ([3]; iv, 1 mg/kg): 4.98 min; AUC(0-inf) ([3]; po, 5 mg/kg): 20300 ng·h/mL; AUC(0-t) ([3]; po, 5 mg/kg): 20300 ng·h/mL; Tmax ([3]; po, 5 mg/kg): 30 min; F ([3]; po, 5 mg/kg): 73.4%; EC50 ([1]; Hepatitis B virus): 3 nM; CC50 at 4 days [4]: > 150000 nM

Q: Which AUC(0-inf) ([3]; iv, 1 mg/kg) does the source give for `COC(=O)C1=C(CN2CCN3C(=O)N(c4ccc(CC(=O)O)cc4)C[C@@H]3C2)NC(c2nccs2)=N[C@H]1c1ccc(F)cc1Cl` [Example 14, 2-(4-((S)-7-(((R)-6-(2-chloro-4-fluorophenyl)-5-(methoxycarbonyl)-2-(thiazol-2-yl)-3,6-dihydropyrimidin-4-yl)methyl)-3-oxohexahydroimidazo[1,5-a]pyrazin-2(3H)-yl)phenyl)acetic Acid] here?
A: 684 ng·h/mL

Q: What about the AUC(0-t) ([3]; iv, 1 mg/kg) of the same molecule?
A: 680 ng·h/mL

Q: And the Tmax ([3]; iv, 1 mg/kg)?
A: 4.98 min

Q: What about the AUC(0-inf) ([3]; po, 5 mg/kg) of the same molecule?
A: 2250 ng·h/mL

Q: What about the AUC(0-t) ([3]; po, 5 mg/kg) of the same molecule?
A: 2250 ng·h/mL

Q: What about the Tmax ([3]; po, 5 mg/kg) of the same molecule?
A: 30 min

Q: What about the F ([3]; po, 5 mg/kg) of the same molecule?
A: 44%

Q: What about the EC50 ([1]; Hepatitis B virus) of the same molecule?
A: 7 nM

Q: And the CC50 at 4 days [4]?
A: > 150000 nM

Q: For `Nc1ccn([C@@H]2CS[C@H](CO)O2)c(=O)n1` [lamivudine], which IC50 [5] is on record?
A: 300 nM

Q: With `COCC(C)(C)NC(=O)CCc1ccc(N2C[C@@H]3CN(CC4=C(C(=O)OC)[C@H](c5ccc(F)cc5Cl)N=C(c5nccs5)N4)CCN3C2=O)cc1` [Example 44, (R)-methyl 4-(2-chloro-4-fluorophenyl)-6-(((S)-2-(4-(3-((1-methoxy-2-methylpropan-2-yl)amino)-3-oxopropyl)phenyl)-3-oxohexahydroimidazo[1,5-a]pyrazin-7(1H)-yl)methyl)-2-(thiazol-2-yl)-1,4-dihydropyrimidine-5-carboxylate] as the molecule, how does the EC50 ([1]; Hepatitis B virus) read?
A: 10 nM

Q: What about the CC50 at 4 days [4] of the same molecule?
A: > 150000 nM

Q: For `COC(=O)CCc1ccc(N2C[C@@H]3CN(CC4=C(C(=O)OC)[C@H](c5ccc(F)cc5Cl)N=C(c5nccs5)N4)CCN3C2=O)cc1` [Example 25, (R)-methyl 4-(2-chloro-4-fluorophenyl)-6-(((S)-2-(4-(3-methoxy-3-oxopropyl)phenyl)-3-oxohexahydroimidazo[1,5-a]pyrazin-7(1H)-yl)methyl)-2-(thiazol-2-yl)-1,4-dihydropyrimidine-5-carboxylate], which EC50 ([1]; Hepatitis B virus) is on record?
A: 5 nM

Q: And the CC50 at 4 days [4]?
A: > 150000 nM

Q: With `COC(=O)C1=C(CN2CCN3C(=O)N(c4ccc(/C=C(\C)C(=O)O)cc4)C[C@@H]3C2)NC(c2nccs2)=N[C@H]1c1ccc(F)cc1Cl` [Example 53, (E)-3-(4-((S)-7-(((R)-6-(2-chloro-4-fluorophenyl)-5-(methoxycarbonyl)-2-(thiazol-2-yl)-3,6-dihydropyrimidin-4-yl)methyl)-3-oxohexahydroimidazo[1,5-a]pyrazin-2(3H)-yl)phenyl)-2-methylacrylic Acid] as the molecule, how does the EC50 ([1]; Hepatitis B virus) read?
A: 14 nM

Q: What about the CC50 at 4 days [4] of the same molecule?
A: > 150000 nM

Q: For `COC(=O)C1=C(CN2CCN3C(=O)N(c4cccc(CC(=O)O)c4)C[C@@H]3C2)NC(c2nccs2)=N[C@H]1c1ccc(F)cc1Cl` [Example 39, 2-(3-((S)-7-(((R)-6-(2-chloro-4-fluorophenyl)-5-(methoxycarbonyl)-2-(thiazol-2-yl)-3,6-dihydropyrimidin-4-yl)methyl)-3-oxohexahydroimidazo[1,5-a]pyrazin-2(3H)-yl)phenyl) acetic Acid], which EC50 ([1]; Hepatitis B virus) is on record?
A: 29 nM

Q: And the CC50 at 4 days [4]?
A: > 150000 nM

Q: For `COC(=O)C1=C(CN2CCN3C(=O)N(c4cccc(C(C)(C)C(=O)O)c4)C[C@@H]3C2)NC(c2nccs2)=N[C@H]1c1ccc(F)cc1Cl` [Example 38, 2-(3-((S)-7-(((R)-6-(2-chloro-4-fluorophenyl)-5-(methoxycarbonyl)-2-(thiazol-2-yl)-3,6-dihydropyrimidin-4-yl)methyl)-3-oxohexahydroimidazo[1,5-a]pyrazin-2(3H)-yl)phenyl)-2-methylpropionic Acid], which EC50 ([1]; Hepatitis B virus) is on record?
A: 15 nM

Q: What about the CC50 at 4 days [4] of the same molecule?
A: > 150000 nM

Q: Which EC50 ([1]; Hepatitis B virus) does the source give for `COC(=O)C1=C(CN2CCN3C(=O)N(c4ccc(CCC(=O)O)cc4)C[C@@H]3[C@H]2CO)NC(c2nccs2)=N[C@H]1c1ccc(F)cc1Cl` [Example 59B] here?
A: 15 nM

Q: And the CC50 at 4 days [4]?
A: > 150000 nM

Q: With `COC(=O)C1=C(CN2CCN3C(=O)N(Cc4ccc(CC(=O)O)cc4)C[C@@H]3C2)NC(c2nccs2)=N[C@H]1c1ccc(F)cc1Cl` [Example 21, 2-(4-(((S)-7-(((R)-6-(2-chloro-4-fluorophenyl)-5-(methoxycarbonyl)-2-(thiazol-2-yl)-3,6-dihydropyrimidin-4-yl)methyl)-3-oxohexahydroimidazo[1,5-a]pyrazin-2(3H)-yl)methyl)phenyl)acetic Acid] as the molecule, how does the EC50 ([1]; Hepatitis B virus) read?
A: 22 nM

Q: And the CC50 at 4 days [4]?
A: 110000 nM

Q: For `COC(=O)C1=C(CN2CCN3C(=O)N(c4cccc(CCC(=O)O)c4)C[C@@H]3C2)NC(c2nccs2)=N[C@H]1c1ccc(F)cc1Cl` [Example 37, 3-(3-((S)-7-(((R)-6-(2-chloro-4-fluorophenyl)-5-(methoxycarbonyl)-2-(thiazol-2-yl)-3,6-dihydropyrimidin-4-yl)methyl)-3-oxohexahydroimidazo[1,5-a]pyrazin-2(3H)-yl)phenyl)propionic Acid], which EC50 ([1]; Hepatitis B virus) is on record?
A: 5 nM

Q: What about the CC50 at 4 days [4] of the same molecule?
A: > 150000 nM

Q: What does the source list for `COC(=O)C1=C(CN2CCN3C(=O)N(c4ccc(CCCNS(C)(=O)=O)cc4)C[C@@H]3C2)NC(c2nccs2)=N[C@H]1c1ccc(F)cc1Cl` [Example 49, (R)-methyl 4-(2-chloro-4-fluorophenyl)-6-(((S)-2-(4-(3-(methylsulfonylamino)propyl)phenyl)-3-oxohexahydroimidazo[1,5-a]pyrazin-7(1H)-yl)methyl)-2-(thiazol-2-yl)-1,4-dihydropyrimidin-5-carboxylate]?
A: EC50 ([1]; Hepatitis B virus): 12 nM; CC50 at 4 days [4]: > 150000 nM
